Here are results for 15 compounds from US6509153B1, “Genetic markers of toxicity preparation and uses” (Exonhit Therapeutics SA, priority 1999, dated 2003).

Structures can show the parent of a compound that is named as a salt.

The test system of the first series is HepG2 cells. As to the kind of experiment: hybridization of probes from treated HepG2 cells on p53 apoptosis filter (toxicity index). The class given is cell-based. Conditions: HepG2 cells treated at IC80 concentration, compared with aspirin. The text has this:
(§1) HepG2 cells are then individually treated with different compounds with different levels of toxicity.
As for `O=C(O)Cc1ccccc1Nc1c(Cl)cccc1Cl` [Diclofenac], the “splicing events identical to those induced by p53-related toxicity (toxicity index ranking)” value is recorded as “generates more splicing events identical to those induced by p53 -related toxicity than aspirin”.

Tested on in a further series: not listed separately
Nature of the series: cell viability test (MTT) used to calculate the IC80 concentration. Type of series: cell-based. The following applies: human; HepG2 cells, exposure time 4 h; read-out: Concentration (corresponds to an IC80, MTT).
Source text: as §1
For `CC[C@@]1(O)C(=O)OCc2c1cc1n(c2=O)Cc2cc3ccccc3nc2-1` [Camptothecin], the IC80 at 4 h is 1 µg/mL. The same measure, in the same setting: the figure for `CCO` [Ethanol] is 100000 µM.

Still in this series, the particulars now being: human; HepG2 cells, exposure time 18 h; read-out: Concentration (corresponds to an IC80, MTT).
As to `CC(=O)Oc1ccccc1C(=O)O` [Aspirin], the IC80 at 18 h is 2000 µM.

Take `Clc1cccc(Cl)c1N=C1NCCN1` [Clonidine]: the IC80 at 18 h is 150 µM.

`C[C@@H]1C[C@@H]([C@H](O)CC2CC(=O)NC(=O)C2)C(=O)[C@@H](C)C1` [Cycloheximide]: the IC80 at 18 h was 5 µg/mL. The same measure, in the same setting: then `O=C(O)Cc1ccccc1Nc1c(Cl)cccc1Cl` [Diclofenac], with 50 µg/mL; and `CNC[C@H](O)c1ccc(O)c(O)c1` [Epinephrine Hydrate], with 50 µg/mL; and `CC[C@H]1OC(=O)[C@H](C)[C@@H](O[C@H]2C[C@@](C)(OC)[C@@H](O)[C@H](C)O2)[C@H](C)[C@@H](O[C@@H]2O[C@H](C)C[C@H](N(C)C)[C@H]2O)[C@](C)(O)C[C@@H](C)C(=O)[C@H](C)[C@@H](O)[C@]1(C)O` [Erythromycin], with 2.5 µg/mL. Still for that read-out and setting: the figure for `COc1cc([C@@H]2c3cc4c(cc3[C@@H](O[C@@H]3O[C@@H]5CO[C@@H](C)O[C@H]5[C@H](O)[C@H]3O)[C@H]3COC(=O)[C@H]23)OCO4)cc(OC)c1O` [Etoposide] is 50 µg/mL. The same measure, in the same setting: then `CN(Cc1cnc2nc(N)nc(N)c2n1)c1ccc(C(=O)N[C@@H](CCC(=O)O)C(=O)O)cc1` [Methotrexate], with 0.5 µM; and `CC(=O)Nc1ccc(O)cc1` [Paracetamol], with 1000 µM. On to `CN[C@@H]1C[C@H]2O[C@@](C)([C@@H]1OC)n1c3ccccc3c3c4c(c5c6ccccc6n2c5c31)C(=O)NC4` [Staurosporine], for which the IC80 is 0.05 µM.

Turning to `CC(C)(C)NCC(O)c1cc(O)cc(O)c1` (stereo not shown) [Terbutaline Sulfate], the IC80 at 18 h was 0.2 µg/mL. Take `CC(C)[C@@H]1NC(=O)[C@H](C)OC(=O)[C@@H](C(C)C)NC(=O)[C@@H](C(C)C)OC(=O)[C@H](C(C)C)NC(=O)[C@H](C)OC(=O)[C@@H](C(C)C)NC(=O)[C@@H](C(C)C)OC(=O)[C@H](C(C)C)NC(=O)[C@H](C)OC(=O)[C@@H](C(C)C)NC(=O)[C@@H](C(C)C)OC1=O` [Valinomycin]: the IC80 at 18 h was 0.015 µM. With `CC[C@]1(O)C[C@@H]2CN(CCc3c([nH]c4ccccc34)[C@@](C(=O)OC)(c3cc4c(cc3OC)N(C)[C@H]3[C@@](O)(C(=O)OC)[C@H](OC(C)=O)[C@]5(CC)C=CCN6CC[C@]43[C@@H]65)C2)C1` [Vinblastine Sulfate], the IC80 at 18 h is 30 µM.
